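48-hour exposure; five concentrations; linearly interpolated endpoints. TGI marks complete inhibition of growth.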
Legend:
Assay in all cases: NCI anticancer screen, dose series, 48 h
[1] = system: SR leukemia
[2] = system: RXF 393 renal
[3] = system: DU-145 prostate
[4] = system: UACC-62 melanoma
[5] = system: HOP-62 NSCLC
[6] = system: MOLT-4 leukemia
[7] = system: 786-0 renal
[8] = system: EKVX NSCLC
[9] = system: SK-OV-3 ovarian
[10] = system: U251 CNS
[11] = system: SK-MEL-28 melanoma
[12] = system: HCT-15 colon
[13] = system: BT-549 breast
[14] = system: RPMI-8226 leukemia
[15] = system: HT29 colon
[16] = system: NCI-H226 lung
[17] = system: A498 renal

| Compound | TGI [1] [µM] | TGI [2] [µM] | TGI [3] [µM] | TGI [4] [µM] | TGI [5] [µM] | TGI [6] [µM] | TGI [7] [µM] | TGI [8] [µM] | TGI [9] [µM] | TGI [10] [µM] | TGI [11] [µM] | TGI [12] [µM] | TGI [13] [µM] | TGI [14] [µM] | TGI [15] [µM] | TGI [16] [µM] | TGI [17] [µM] |
| --- | --- | --- | --- | --- | --- | --- | --- | --- | --- | --- | --- | --- | --- | --- | --- | --- | --- |
| Nc1ccn([C@H]2CO[C@@H](CO)O2)c(=O)n1 | > 100 | > 83.3 | > 22.6 | > 46.4 | > 57.9 | 49.5 | > 100 | > 100 | > 100 | > 100 | > 100 | > 100 | > 100 | > 100 | > 100 | > 100 | – |
| COC(=O)[C@@]12CC[C@]1(C(=O)OC)C1C(C)=CC(=O)O[C@@]12C (some centres not stated) | > 100 | > 100 | > 100 | > 100 | > 100 | > 100 | > 100 | > 100 | > 100 | > 100 | > 100 | > 100 | > 100 | > 100 | > 100 | > 100 | – |
| CCCCCCc1cc2cc(C(=O)Nc3ccccc3F)c(=N)oc2cc1O | 50.2 | – | 25.2 | 36.1 | 31.8 | 90.5 | 24.9 | 32.3 | 29.3 | 17.9 | 56.8 | 22.3 | 23.2 | > 100 | 62.9 | – | 37.2 |
| OC(c1ccc(F)cc1)C(F)(F)c1nc(-c2ccccc2)no1 (configuration not stated) | – | – | 50.4 | 37.7 | – | – | 44.2 | 63.7 | – | 29.2 | > 100 | 63 | 36.8 | – | 33.4 | – | 39.2 |
| CC(=O)Nc1ccc2c3c(cc(O)c2c1)N(C(=O)CCCC(=O)Nc1ccc2c4c(cc(O)c2c1)N(C(=O)OC(C)(C)C)CC4CCl)CC3CCl (configuration not stated) | – | 10.6 | > 50 | 2.31 | > 25.2 | 0.912 | > 13.1 | > 35.3 | > 15.6 | 4.38 | > 13 | > 50 | 3.75 | > 34.8 | > 13.1 | – | 2.63 |
| CC(=O)c1c2c(cc3c1CC1(Cc4cc5c(cc4C1=O)CCC5)C3)CCC2 (configuration not stated) | > 100 | – | > 100 | > 100 | > 100 | > 100 | > 100 | > 100 | > 100 | > 100 | > 100 | > 100 | > 100 | > 92.9 | > 100 | > 100 | > 100 |
| c1ccc2c(c1)ccc1ncccc12 | > 100 | > 100 | > 100 | > 100 | > 100 | > 100 | > 100 | > 100 | – | > 100 | > 100 | > 100 | > 100 | > 100 | > 100 | > 100 | > 100 |
| CN(C)C(=S)N/N=C\C(=N/NC(=S)N(C)C)c1ccccc1 | – | > 27.8 | > 22.7 | > 100 | > 100 | > 100 | > 100 | > 100 | > 100 | > 100 | > 100 | > 100 | > 100 | > 100 | > 100 | > 30.6 | 49.1 |
| Cn1c(=O)cc(NNc2ccc(Br)cc2)[nH]c1=O | > 100 | – | 19.3 | – | 29.5 | – | 21.4 | 37.5 | – | 10 | 34.7 | 19.6 | 30.6 | 46 | 12.2 | 39.1 | > 100 |
| O=C1NCC2(CCN(Cc3ccccc3)CC2)N1 | > 100 | > 100 | > 100 | > 100 | > 100 | > 100 | > 100 | > 100 | > 100 | > 100 | > 100 | > 100 | > 100 | > 100 | > 100 | > 100 | – |
| CC(C)(C)c1ccc(-c2nc3ccccc3c(=O)o2)cc1 | 54.2 | > 100 | > 100 | > 100 | > 100 | 47.8 | > 100 | > 100 | > 100 | > 100 | > 100 | > 100 | 91 | 93.3 | > 100 | – | > 100 |
| COc1ccc(-n2nnc3c(C#N)c(-c4ccccc4)c(C)n3c2=O)cc1 | 91 | 93.8 | > 100 | > 100 | > 100 | – | 40 | > 100 | > 100 | > 100 | > 100 | > 100 | > 100 | > 100 | > 100 | > 100 | > 100 |
| Cc1c(C)c(S(=O)(=O)N(CCCCCN)OCCCN)c(C)c2c1OC(C)(C)CC2 | – | 71.9 | > 70.5 | 30.3 | 25.1 | 48.5 | 29 | 25.3 | 32 | > 36.9 | 65.4 | 42.5 | 29.8 | 18 | 28.7 | 32.7 | 40.9 |
| C/C(O)=C(/C=N\C(=S)Nc1ccc(Cl)c(Cl)c1)C(=O)Nc1ccccc1C | – | > 100 | 92 | 49.8 | > 100 | 54.9 | > 100 | > 100 | > 100 | > 100 | > 100 | > 100 | > 100 | – | 87.1 | 88.7 | 79.6 |
| Cc1[nH]c2ncn3ncnc3c2c1Cc1ccccc1 | – | > 100 | > 100 | > 100 | > 100 | > 100 | > 100 | > 100 | > 100 | > 100 | > 100 | > 100 | > 100 | – | > 100 | > 100 | > 100 |

Source: PubChem BioAssay (NCI)
